Experimental data taken from US5965537A, “Dolastatin 15 derivatives with carbonyl and heterocyclic functionalities at the C-terminus” (BASF Aktiengesellschaft, priority 1997, dated 1999).

System: HT-29 colon carcinoma cells
Test: Cytotoxicity, microculture tetrazolium assay (MTT), HT-29 cell system
Assay type: cell-based
Conditions: 48 hours incubation, T/C of 50% growth inhibition
Protocol: Cytotoxicity was measured using standard methodology for adherent cell lines, such as the microculture tetrazolium assay (MTT). Details of this assay have been published (Alley, M. C., et al., Cancer Research, 48: 589-601,(1988)). Exponentially growing cultures of HT-29 colon carcinoma cells were used to make microtiter plate cultures. Cells were seeded at 5000-20,000 cells per well in 96-well plates (in […] of media), and grown overnight at 37° C. Test compounds were added, in 10-fold dilutions varying from 10^-4 M to 10^-10 M. Cells were then incubated for 48 hours. To determine the number of viable cells in each well, the MTT dye was added ([…] of a 3 mg/ml solution of 3-(4,5-dimethylthiazol-2-yl)-2,5-diphenyltetrazolium bromide in saline). This mixture was incubated at 37° C. for 5 hours, and then […] of 25% SDS, pH 2, was added to each well. After an overnight incubation, the absorbance of each well at 550 nm was read using an ELISA reader. The values for the mean ±SD of data from replicated wells were calculated, using the formula % T/C (% viable cells treated/control). The concentration of test compound which gives a T/C of 50% growth inhibition was designated as the IC50.
Table 9, below, presents the IC50 values determined in the HT-29 cell system: […]

| Compound | IC50 |
| --- | --- |
| CCCCC(=O)[C@@H]1CCCN1C(=O)[C@@H]1CCCN1C(=O)[C@H](C(C)C)N(C)C(=O)[C@@H](NC(=O)[C@H](C(C)C)N(C)C)C(C)C [Compound I-5, (S)-(Me2 Val-Val-MeVal-Pro-pyrrolidin-2-yl)butylketone] | > 1 µM |
| 2-[(S)-(Me2 Val-Val-MeVal-Pro-pyrorolidin-2-yl)]-5-phenyloxazole [III-12] | 0.9 µM |
| CC(=O)[C@@H]1CCCN1C(=O)[C@@H]1CCCN1C(=O)[C@H](C(C)C)N(C)C(=O)[C@@H](NC(=O)[C@H](C(C)C)N(C)C)C(C)C [Compound I-1, (S)-(Me2 Val-Val-MeVal-Pro-pyrrolidin-2-yl)-methylketone] | > 1 µM |
| COCC(=O)[C@@H]1CCCN1C(=O)[C@@H]1CCCN1C(=O)[C@H](C(C)C)N(C)C(=O)[C@@H](NC(=O)[C@H](C(C)C)N(C)C)C(C)C [Compound I-12, (S)-(Me2 Val-Val-MeVal-Pro-pyrrolidin-2-yl)methoxy-methylketone] | 0.4 µM |
| COc1ccc(C(=O)[C@@H]2CCCN2C(=O)[C@@H]2CCCN2C(=O)[C@H](C(C)C)N(C)C(=O)[C@@H](NC(=O)[C@H](C(C)C)N(C)C)C(C)C)cc1 [Compound I-22, (S)-(Me2 Val-Val-MeVal-Pro-pyrrolidin-2-yl)-(4-methoxyphenyl) ketone] | > 1 µM |
| CC(C)[C@H](NC(=O)[C@H](C(C)C)N(C)C)C(=O)N(C)[C@H](C(=O)N1CCC[C@H]1C(=O)N1CCC[C@H]1C(=O)c1ccc(F)cc1)C(C)C [Compound I-32, (S)-(Me2Val-Val-MeVal-Pro-pyrrolidin-2-yl)-(4-fluorophenyl) ketone] | > 1 µM |
| (S)-(Me2Val-Val-MeVal-Pro-pyrrolidin-2-yl)-trifluoromethyl-ketone [Compound I-54] | > 1 µM |
| 2-[(S)-(Me2 Val-Val-MeVal-Pro-pyrrolidin-2-yl)]-3,4-dimethyl-thiazole [III-28] | 0.4 µM |

System: P388 lymphocytic leukemia (PS system) cell line
Test: not given
Conditions: cited from earlier work

| Compound | inhibition of growth of P388 lymphocytic leukemia cell line |
| --- | --- |
| Dolastatin 15 | markedly inhibits the growth |

System: not given
Test: not given
Conditions: synthetic Dolastatin 15; cited from earlier work

| Compound | solubility in aqueous systems |
| --- | --- |
| Dolastatin 15 | poor solubility in aqueous systems |
